Broadly, the IC50 is the point on the concentration scale where inhibition reaches its midpoint.

The source of these data is patent CN113979875A, “一种地佐辛衍生物晶型a及其制备方法和应用” (Yangtze River Pharmaceutical Group Co Ltd, priority 2020, dated 2022).

Data set [1] in a line: Stress (influencing factor) stability test, crystal form by XRPD (Example 9). The data set is classed as physicochemical.
Data set [2] is described as follows: Grinding test, crystal form by XRPD (Example 7). Conditions: agate mortar, thorough grinding for half an hour. The data set is classed as physicochemical.
The nature of data set [3]: Intermediate and long-term storage stability (Example 10). Conditions: 12 months. The data set is classed as physicochemical.
The target of data set [4] is μ opioid receptor (μ阿片类受体) (Homo sapiens, UniProt P35372). As to the kind of experiment: Radioligand competitive binding, μ opioid receptor (Example 12).
In data set [5] the target is κ opioid receptor (κ阿片类受体) (Homo sapiens, UniProt P41145). As to the kind of experiment: Radioligand competitive binding, κ opioid receptor (Example 12).
The target in data set [6] is δ opioid receptor (δ阿片类受体) (Homo sapiens, UniProt P41143). As to the kind of experiment: Radioligand competitive binding, δ opioid receptor (Example 12).
The mark [7] stands for this setting: intermediate condition 30℃±2℃/65%±5%RH.
The mark [8] stands for this setting: long-term condition 25℃±2℃/60%±5%RH.

In the case of `C[C@@]12CCCCC[C@@H](Cc3ccc(O)cc31)[C@@H]2NCc1ccccc1.Cl` [地佐辛衍生物晶型A], the crystal form entry in data set [1] (day 0 (initial)) was “晶型A”; in data set [1] (high humidity, 5 days), “晶型A”; in data set [1] (high humidity, 10 days) it was “晶型A”; in data set [1] (high humidity, 30 days), “晶型A”; in data set [1] (high temperature and high humidity, 5 days), “晶型A”; in data set [1] (high temperature and high humidity, 10 days), “晶型A”. Further, the crystal form entry in data set [1] (high temperature and high humidity, 30 days) is recorded as “晶型A”; in data set [1] (light, 5 days) it was “晶型A”; in data set [1] (light, 10 days) it was “晶型A”; in data set [1] (light, 30 days), “晶型A”. For the same compound, in data set [1] (high temperature and high humidity, high humidity, and light (Figs. 9-17)), the “crystal transformation (XRPD compared with initial data)” value was “没有发生转晶现象”. The “change in all quality indices” value in data set [1] (light, high temperature and high humidity, high humidity, packed in medicinal LDPE bag and polyester/aluminium/polyethylene composite film) is recorded as “各项指标无明显变化,均符合质量标准要求”. Further, the “crystal transformation on grinding” value in data set [2] is reported as “未转晶”. Also, the chemical stability result in data set [3] (setting [7]) and in data set [3] (setting [8]) was “很好的化学稳定性” each time. For the same compound, the crystal form stability entry in data set [3] (setting [7]) and in data set [3] (setting [8]) was “很好的化学稳定性和晶型稳定性” in each case.

As for `C[C@@]12CCCCC[C@@H](Cc3ccc(O)cc31)[C@@H]2NCc1ccccc1.Cl` [地佐辛衍生物晶型A, 盐酸盐], the IC50 in data set [4], in data set [5] and in data set [6] was under 0.01 µM in each case.
